Results taken from ChEMBL document CHEMBL5465560, “Selectivity Literature for EUbOPEN Chemogenomic Library” (2024).
One block for each compound: values may come before it.

Key:
[1] = molecular target: T1, Tyrosine-protein kinase JAK3 (Homo sapiens) (UniProt P52333); test: Selectivity interaction (SelectScreen profiling (Invitrogen)) EUB0000607a JAK3; conditions: at 2 µM
T1 sequence (whole entry): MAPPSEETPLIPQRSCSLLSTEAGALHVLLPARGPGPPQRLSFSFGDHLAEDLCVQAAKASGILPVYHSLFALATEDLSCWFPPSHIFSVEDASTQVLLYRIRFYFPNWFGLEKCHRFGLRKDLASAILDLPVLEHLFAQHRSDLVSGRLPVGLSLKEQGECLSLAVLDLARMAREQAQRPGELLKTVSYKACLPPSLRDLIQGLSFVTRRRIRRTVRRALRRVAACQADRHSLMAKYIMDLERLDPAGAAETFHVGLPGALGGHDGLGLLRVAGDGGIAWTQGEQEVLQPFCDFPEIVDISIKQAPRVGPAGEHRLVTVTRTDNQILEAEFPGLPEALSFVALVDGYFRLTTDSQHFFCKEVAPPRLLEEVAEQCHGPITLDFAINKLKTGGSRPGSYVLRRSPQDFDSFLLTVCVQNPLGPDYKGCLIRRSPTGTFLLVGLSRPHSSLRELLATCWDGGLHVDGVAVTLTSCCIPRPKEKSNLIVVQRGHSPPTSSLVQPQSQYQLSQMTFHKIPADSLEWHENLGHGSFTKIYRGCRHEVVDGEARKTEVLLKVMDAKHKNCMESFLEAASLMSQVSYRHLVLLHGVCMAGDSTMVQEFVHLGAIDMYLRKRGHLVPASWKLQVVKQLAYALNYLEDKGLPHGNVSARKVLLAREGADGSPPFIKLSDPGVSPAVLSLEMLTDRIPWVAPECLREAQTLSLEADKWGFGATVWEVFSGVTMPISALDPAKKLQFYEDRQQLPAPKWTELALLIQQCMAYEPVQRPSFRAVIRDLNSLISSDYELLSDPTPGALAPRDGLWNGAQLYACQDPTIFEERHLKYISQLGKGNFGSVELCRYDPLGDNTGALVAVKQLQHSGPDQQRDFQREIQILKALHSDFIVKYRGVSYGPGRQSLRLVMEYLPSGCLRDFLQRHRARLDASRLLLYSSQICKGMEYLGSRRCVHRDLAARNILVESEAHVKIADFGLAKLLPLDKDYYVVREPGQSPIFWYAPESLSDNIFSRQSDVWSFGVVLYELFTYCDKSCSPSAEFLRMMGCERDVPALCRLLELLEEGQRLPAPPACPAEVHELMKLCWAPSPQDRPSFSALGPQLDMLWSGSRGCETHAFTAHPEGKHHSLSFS

[2] = molecular target: T2, Scaffold protein ILK (Homo sapiens) (UniProt Q13418); test: Selectivity interaction (ActivX KiNativ screen (kinase selectivity in THP-1 cell lysates)) EUB0000639a ILK; assay type: subcellular; conditions: lysate
T2 sequence (whole entry): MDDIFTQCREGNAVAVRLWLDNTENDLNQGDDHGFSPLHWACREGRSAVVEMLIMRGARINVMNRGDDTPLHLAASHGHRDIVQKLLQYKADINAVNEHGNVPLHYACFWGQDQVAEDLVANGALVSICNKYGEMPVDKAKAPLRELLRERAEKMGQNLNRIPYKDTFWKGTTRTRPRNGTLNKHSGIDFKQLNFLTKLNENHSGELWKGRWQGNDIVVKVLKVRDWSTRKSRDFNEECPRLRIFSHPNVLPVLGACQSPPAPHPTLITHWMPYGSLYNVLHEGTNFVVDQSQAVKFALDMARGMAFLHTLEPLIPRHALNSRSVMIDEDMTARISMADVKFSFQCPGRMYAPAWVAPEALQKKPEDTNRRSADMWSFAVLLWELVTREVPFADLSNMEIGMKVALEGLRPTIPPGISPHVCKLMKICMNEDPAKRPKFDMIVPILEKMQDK

[3] = molecular target: T3, Rhodopsin kinase GRK7 (Homo sapiens) (UniProt Q8WTQ7); test: Selectivity interaction (KinomeScan (DiscoverX)) EUB0000045b GRK7
T3 sequence (whole entry): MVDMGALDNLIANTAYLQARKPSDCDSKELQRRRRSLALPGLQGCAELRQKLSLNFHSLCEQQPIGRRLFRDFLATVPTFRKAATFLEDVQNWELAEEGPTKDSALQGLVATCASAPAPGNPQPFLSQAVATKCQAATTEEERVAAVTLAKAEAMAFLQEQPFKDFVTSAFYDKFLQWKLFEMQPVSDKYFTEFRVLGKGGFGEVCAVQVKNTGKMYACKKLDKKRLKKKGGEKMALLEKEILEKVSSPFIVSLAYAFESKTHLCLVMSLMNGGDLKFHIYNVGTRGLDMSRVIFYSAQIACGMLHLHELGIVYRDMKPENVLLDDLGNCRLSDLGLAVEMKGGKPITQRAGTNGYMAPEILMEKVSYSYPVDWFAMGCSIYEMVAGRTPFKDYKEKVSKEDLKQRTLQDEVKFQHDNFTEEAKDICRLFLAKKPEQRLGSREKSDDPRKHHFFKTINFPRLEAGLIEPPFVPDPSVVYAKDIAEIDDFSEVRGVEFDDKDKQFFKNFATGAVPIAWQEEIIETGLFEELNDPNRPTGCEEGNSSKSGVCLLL

[4] = system: Tyrosine-protein kinase ABL1 (Homo sapiens), P00519 [F317I]; test: (§1) Selectivity interaction (KinomeScan (DiscoverX)) EUB0001079a ABL1; conditions: at 1 µM
[5] = system: Tyrosine-protein kinase ABL1 (Homo sapiens), P00519 [Y253F]; test: as §1; conditions: at 1 µM
[6] = system: Tyrosine-protein kinase ABL1 (Homo sapiens), P00519 [T315I]; test: as §1; conditions: at 1 µM
[7] = system: Tyrosine-protein kinase ABL1 (Homo sapiens), P00519 [E255K]; test: as §1; conditions: at 1 µM
[8] = molecular target: T4, Megakaryocyte-associated tyrosine-protein kinase (Homo sapiens) (UniProt P42679); test: Selectivity interaction (KinomeScan (DiscoverX)) EUB0001079a MATK; conditions: at 1 µM
T4 sequence (whole entry): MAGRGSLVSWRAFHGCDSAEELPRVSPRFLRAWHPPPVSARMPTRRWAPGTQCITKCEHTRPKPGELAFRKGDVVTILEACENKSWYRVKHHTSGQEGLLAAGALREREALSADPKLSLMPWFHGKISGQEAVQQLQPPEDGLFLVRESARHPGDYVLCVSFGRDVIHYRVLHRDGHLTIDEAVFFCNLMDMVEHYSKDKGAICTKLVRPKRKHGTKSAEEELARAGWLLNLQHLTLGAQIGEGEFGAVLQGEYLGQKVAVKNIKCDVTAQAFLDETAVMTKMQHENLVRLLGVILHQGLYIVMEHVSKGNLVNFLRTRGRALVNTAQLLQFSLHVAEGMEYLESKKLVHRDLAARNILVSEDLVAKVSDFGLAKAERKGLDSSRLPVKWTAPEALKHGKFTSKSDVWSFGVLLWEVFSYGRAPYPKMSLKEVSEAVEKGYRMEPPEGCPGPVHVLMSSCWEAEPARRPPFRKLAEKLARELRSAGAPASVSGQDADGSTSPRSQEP

SMILES: CNC(=O)Nc1ccc(-c2nc(N3CC4CCC(C3)O4)c3cnn(C4CCC5(CC4)OCCO5)c3n2)cc1
% of inhibition [1]: 0%

% of inhibition ([2]; at 0.01 µM): 6.6% | % of inhibition ([2]; at 0.04 µM): 1.4% | % of inhibition ([2]; at 0.2 µM): 11.2% | % of inhibition ([2]; at 1 µM): 7.8% | % of inhibition ([2]; at 5 µM): -3.7%
SMILES: CC[C@@H]1[C@H](F)C(=O)N[C@@H]1COc1nccc2cc(C(N)=O)c(OC)cc12 [ZIMLOVISERTIB]

SMILES: C=CC(=O)Nc1cc(-n2c(=O)ccc3cnc4ccc(-c5ccc(NS(C)(=O)=O)cc5)cc4c32)ccc1C
% of control ([3]; at 1 µM): 75% | % of control ([3]; at 10 µM): 84%

SMILES: Nc1cnc(N2CCc3cc(S(=O)(=O)Nc4c(F)cc(Cl)cc4F)cc(N4CCCC4=O)c32)nc1 [TP-020n]
% of control [4]: 100% | % of control [5]: 94% | % of control [6]: 100% | % of control [7]: 85% | % of control [8]: 100%
